Where a name gives a salt, the structure may show the parent alone.
Test: Adverse events in escalating dose tolerance study in psychogenic male erectile dysfunction (Example 5)
Type: in vivo, human
Method: Example 5-Summary. This clinical study was conducted in three phases. In Phase 1 subjects were selected from among patients complaining of impotence by a thorough physiological and psychological assessment. For example, one step in the assessment process required candidates to undergo Rigiscan measurement of penile rigidity and circumference following administration of a placebo tablet in single blind fashion. Phase 2 consisted of a dose escalation (4, 6, and 8 mg tablets) administered on 4 visits. An out-patient phase was conducted as Phase 3. Patients were given apomorphine HCL tablets to use at home.
Example-5 Detailed Description (Clinical Study #94-03-01). The human study was conducted in three separate phases. Phase 1 consisted of selecting appropriate subjects and obtaining baseline information on sexual performance for each subject.
They were tested on four separate days at four separate doses (placebo and three active medication doses) with an interval of no less than six days between visits (i.e., one visit per week).
If the trial was aborted, the patient was given the choice of having Gravol 50 mg p.o. (an anti-emetic) administered at that time or enduring the adverse events as they arose. In either event, the patient was monitored by the research clinician until all side-effects had subsided. The patient was asked to return the following week for the next scheduled dose.
During the five-week, home-use phase, subjects were to attempt coitus at least once each week after taking a single APO tablet. After each attempt, the subject and their partner completed a Sexual Function questionnaire (See FIGS. 15 and 16) which was later evaluated and used for final statistical analysis.
The data was analyzed by an inspection of the reported adverse events, the given dose of apomorphine and the phase of the study, i.e., in-patient (dose escalating) or take-home (constant dose) phases.

For `CN1CCc2cccc3c2[C@H]1Cc1ccc(O)c(O)c1-3` [apomorphine HCl], the “Total Number of Adverse Events” value (Phase 2 (dose escalation), 4 mg/week) was 31, the “Total Number of Adverse Events” value (Phase 2 (dose escalation), 6 mg/week) was 58 and the “Total Number of Adverse Events” value (Phase 2 (dose escalation), 8 mg/week) was 50. The “Total Number of Adverse Events” value (Phase 3 (out-patient), 4 mg) was 15, the “Total Number of Adverse Events” value (Phase 3 (out-patient), 6 mg) was 13 and the “Total Number of Adverse Events” value (Phase 3 (out-patient), 8 mg) was 8. The “overall incidence of nausea” value (all administered doses) was “less than 13%”, the severe nausea cases (all doses) was “two” and the hypotension (also bradycardia, dizziness, syncope, pallor reported) was “reported as an adverse event in some subjects”. The “Anti-Emetic In Patient, Total” value (in vivo) was 8, the “Anti-Emetic Take Home, Total” value (in vivo) was 2 and the “In-Patient A.E.'s, Total” value (in vivo) was 109. For the same molecule, the “Take-Home A.E.'s, Total” value (in vivo) was 25, the “decrease in adverse events per tablet” value (in vivo) was about 95.6% and the “frequency of side effects” value (in vivo) was 94.2%. For the same molecule, the incidence of vomiting (in vivo) was “less than 3%”, the “increased sweating and fatigue” value (in vivo) was “also reported” and the “severe hypotension and pallor” value (in vivo) was “Only single cases”. For the same molecule, the severe increased sweating (in vivo) was “One of the cases”.

From patent publication US5994363A (priority 1998, dated 1999)
